Patent EP0846119B1, “THIENOPYRIMIDINE DERIVATIVES, THEIR PRODUCTION AND USE AS ENDOTHELIN ANTAGONISTS” (Takeda Chemical Industries, Ltd., priority 1995, dated 1997)
Like-named read-outs stand apart in the source and are kept apart here.

Assays:
[1] = molecular target: T1, human ETA 24 endothelin receptor (Homo sapiens, UniProt P25101); assay: Binding Test to ETA receptor expressed in CHO cell (ET-1-stimulated [3H]arachidonic acid release); format: cell-based; conditions: CHO cell expressing human ETA (ETA 24 cells), final concentration of ET-1 6.3x10^-10M, n=2
T1 construct: expressed in transfected cells; host or cells: CHO cells (clone ETA 24)
T1 sequence (P25101 21-427): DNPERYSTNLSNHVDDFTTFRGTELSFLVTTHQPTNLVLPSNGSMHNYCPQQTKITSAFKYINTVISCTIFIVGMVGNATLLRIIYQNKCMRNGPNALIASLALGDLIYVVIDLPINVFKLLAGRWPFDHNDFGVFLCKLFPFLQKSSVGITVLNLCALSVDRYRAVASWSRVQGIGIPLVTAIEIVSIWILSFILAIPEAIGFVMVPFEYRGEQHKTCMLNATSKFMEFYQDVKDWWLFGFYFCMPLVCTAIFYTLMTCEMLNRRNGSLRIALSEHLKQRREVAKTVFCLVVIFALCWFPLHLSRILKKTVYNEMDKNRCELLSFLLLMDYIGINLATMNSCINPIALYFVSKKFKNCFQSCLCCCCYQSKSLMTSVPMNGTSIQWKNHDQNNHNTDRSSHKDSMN
Description: Binding Test to ETA receptor expressed in CHO cell:
cells: CHO cell expressing human ETA 24 endothelin receptor, i.e. ETA 24 cells medium: DMEM 10% FCS Gln, nonessential amino acids, penicillin, streptomycin
Cells were seeded in 12 wells of 24 well plates at a density of 2x10^5 cells/well (1 ml medium/well). On the next day, [^3H]arachidonic acid was added to each well to be 250 nCi(nanocurie)/ml. On the next day, the medium was sucked from the wells by the use of an aspirator to remove free arachidonic acid and floating cells, and then 0.5 ml of medium was added. This procedure was repeated again. After allowing to stand for 30 minutes in a CO2 incubator, the medium was exchanged rapidly.
The sample of compound obtained in Example 5 or compound 16 of Example 11 was stepwise diluted with a buffer solution for dilution, containing 3.15x10^-8M endothelin-1 (ET-1) {20 mM Tris, 5 mM Mg(AcO)2, 2 mM EGTA, 0.03% NaN3, 0.1% BSA, 0.05% CHAPS}. 10 µl of the solution was added to each well (final concentration of ET-1: 6.3x10^-10M). […] After allowing to-stand for 30 minutes in the CO2 incubator, the medium was completely collected and the radio activity of [^3H]arachidonic acid released in the medium was measured by a liquid scintillation counter. IC50 values were calculated by hill plot from the concentration and relative reaction value of each sample. […]

[2] = tested on: coronary artery where ETA is expressed; assay: Inhibition Test on coronary artery where ETA is expressed (ET-1-induced constriction of ring samples); conditions: porcine coronary artery ring, pre-treatment 30 minutes, relative to vehicle group
Description: Inhibition Test on coronary artery where ETA is expressed:
3-mm ring samples for vehicle group and drug-treating group were prepared by removing fat and connective tissue from coronary artery enucleated from porcine heart and obtained from the adjacent portions thereof. The samples, hanging in Magnus tube filled with Krebs solution, were stabilized for 90 minutes under 2 g of static tension. After subjecting the samples to constriction for 10 minutes by potassium chloride (KCl) (60 mM) to obtain the maximum reaction, the samples were then washed and stabilized for 60 minutes. […]
The constriction efficiency (% KCl) of ET-1 was calculated as a relative value to KCl constriction of each sample which was regarded as 100%. Further, the inhibiting efficiency was calculated from the constriction efficiency of the drug-treating group calculated as a relative value to the constriction of the vehicle group which was regarded as 100%.

[3] = molecular target: T2, human endothelin-B (ETB) receptors (Homo sapiens, UniProt P24530); assay: Binding Test to ETB receptor expressed in an insect cell Sf9 ([125I]endothelin-1 displacement)
T2 construct: made in house; host or cells: Sf9 insect cells (membrane fractions)
T2 sequence (P24530 27-442): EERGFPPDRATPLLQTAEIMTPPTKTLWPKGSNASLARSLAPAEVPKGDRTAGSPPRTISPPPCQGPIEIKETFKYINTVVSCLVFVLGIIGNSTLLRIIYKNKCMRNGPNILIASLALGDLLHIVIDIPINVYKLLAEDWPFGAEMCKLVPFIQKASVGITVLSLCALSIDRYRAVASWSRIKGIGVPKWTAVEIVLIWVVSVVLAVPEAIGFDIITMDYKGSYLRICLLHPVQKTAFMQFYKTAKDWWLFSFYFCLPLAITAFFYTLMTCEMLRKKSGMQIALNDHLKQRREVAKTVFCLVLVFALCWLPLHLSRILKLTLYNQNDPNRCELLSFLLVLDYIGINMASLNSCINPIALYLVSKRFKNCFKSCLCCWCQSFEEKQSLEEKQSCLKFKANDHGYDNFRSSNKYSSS
Description: Binding Test to ETB receptor expressed in an insect cell Sf9:
Endothelin (ET) receptors were prepared by diluting fractions of insect cell (Sf9) membrane having human endothelin-B (ETB) receptors expressed, with an assay buffer {200 mM Tris-HCl, 2 mM EGTA (ethylenegiycol bis(2-aminoethylether) tetra acetic acid), 5 mM magnesium acetate, 0.1% BSA (bovine serum albumin), 0.03% NaN3, 0.5 mM PMSF(phenyl methyl sulfonyl fluoride), 20 µg/ml leupeptin, 4 µg/ml E-64 (products of the Peptide Institute), 1 µg/ml pepstatin, (pH 7.2)} respectively in a concentration of 1.4 µg/ml in the former case and 0.7 µg/ml in the latter case.
To 100 µl of each portion was added 5 nM[^125I] endothelin-1 (2 µl). A dimethylsulfoxide solution (3 µl) of the sample was added thereto and incubated at 25°C fpr 60 minutes.
And, to determine the maximum binding amount (B0) and non-specific binding amount (NSB), lots to which a dimethyl sulfoxide solution (3 µl) or a dimethyl sulfoxide solution (3 µl) containing endothelin-1 (10^-5M) had been added, were also incubated.
These lots were supplemented with 0.05% CHAPS(3-[(3-chloroamidopropyl)dimethylammonio]-1-propanesulfonate)-assay buffer (1.5 ml), subjected to filtration through a glass fiber filter GF/F (trade name; product of Whatman Ltd. (England)), and then washed with the same buffer (1.5 ml).
Radioactivity on the filter was counted in a gamma-counter to determine the Percent Maximum Binding (PMB) in accordance with the aforesaid calculation formula. The concentration causing PMB=50% was determined as IC50 value.

[4] = Sf9 membrane fractions, [125I]endothelin-1, 25°C, 60 minutes, concentration causing PMB=50%, read-out: IC50 value: µM Human endotherin-B receptor
[5] = Table 6, values recur in Table 8, read-out: Binding IC50 (µM) ETB

SMILES | IC50 [1] | % inhibition (MEAN ± S.E.M.) (n=) artery (ET-1 3nM) ([2]; compound 1 µM) | IC50 [3, 4] | IC50 [3, 5] | % inhibition (MEAN ± S.E.M.) (n=) artery (ET-1 3nM) ([2]; compound 0.1 µM)
CCS(=O)(=O)NCc1c(-c2ccc(OCOC)cc2)sc2c1c(=O)n(CC(=O)O)c(=O)n2Cc1ccccc1SC [11(16), 2,4(1H,3H)-Dioxo-6-(4-methoxymethoxyphenyl)-1-(2-methylthiobenzyl)-5-(ethanesulfonamidomethyl)thieno[2,3-d]pyrimidine-3-acetic acid] | 110 nM | 33.1 ± 8.6 (4) % | 0.054 µM | 0.054 µM | –
COCOc1ccc(-c2sc3c(c2CNS(C)(=O)=O)c(=O)n(CC(=O)O)c(=O)n3Cc2ccccc2SC)cc1 [Example 5, 2,4(1H,3H)-dioxo-6-(4-methoxymethoxyphenyl)-1-(2-methylthiobenzyl)-5-(methanesulfonamidomethyl)thieno[2,3-d]pyrimidine-3-aretic acid] | 390 nM | 78.1 ± 11.9 (4) % | 0.2 µM | 0.1 µM | 7.6 ± 37.3 (3) %
